Test results: patent US20080038809A1, “ISOLATED LECTIN POLYPEPTIDES CONSISTING OF TRUNCATED […] UDP-GalNAc:POLYPEPTIDE N- ACETYLGALACTOSAMINYLTRANSFERASES” (GLYCOZYM APS, priority 2002, published 2008)
Entries after “also recorded” stand apart in the source; their conditions may differ.

Key:
[1] = tested on: MUC1 in CHO1d1D/MUC1F-clone2 cells; experiment: MUC1 expression in cell lysates, immunoprecipitation and SDS-PAGE western blot (FIGS. 12-15); assay type: cell-based, Chinese Hamster; conditions: 2 mM, 48 hours
Method: FIG. 12 is an SDS-PAGE Western analysis of GalNAcα-benzyl inhibition of MUC1 expression in CHO 1d1D cells stably transfected with a full coding MUC1 construct. […] Cells were further treated with 2 mM GalNAcα-benzyl (lanes 1, 4, 7, 10), 2 mM GlcNAcα-benzyl (lanes 2, 5, 8, 11) or no inhibitor (lanes 3, 6, 9, 12). Cells were washed and lysed at 24 or 48 hours and the lysates subjected to immunoprecipitation with monoclonal antibody HMFG2, which broadly recognize MUC1 glycoforms. Immunoprecipitates were analysed by SDS-PAGE and western blot using HMFG2 antibody to detect MUC1 expression. Lane M indicates molecular markers with assigned mw. Lane C includes a control MUC1 180-mer tandem repeat peptide which has been GalNAc-glycosylated with 3 moles GalNAc per repeat using GalNAc-T2. The sharp bands migrating at 100-200 kd are immunoglobulins indicated by IgG.
Cells were further treated with 2 mM GalNAcα-benzyl (lanes 1, 4, 7, 10), 2 mM GalNAcβ-benzyl (lanes 2, 5, 8, 11) or 2 mM GlcNAcα-benzyl (lanes 3, 6, 9, 12). Cells were washed and lysed at 36 hours and the lysates subjected to immunoprecipitation with monoclonal antibodies HMFG2 (lanes 1-6) or 5E5 (lanes 7-12). Immunoprecipitates were analysed by SDS-PAGE and western blot using HMFG2 antibody. Lanes M and C as described in legend to FIG. 7.
We next analysed the expression of MUC1 produced by CHO1d1D/MUC1F-clone2 cells by SDS-PAGE western analysis. […] Cells were further treated with 2 mM GalNAcα-benzyl, GlcNAcα-benzyl or no inhibitor. Cells were washed and lysed at 24 or 48 hours and the lysates subjected to immunoprecipitation with monoclonal antibody HMFG2, which broadly recognize MUC1 glycoforms. Immunoprecipitates were analysed by SDS-PAGE and western blot using HMFG2 antibody to detect MUC1 expression. […] In striking contrast, treatment with GalNAcα-benzyl had significant effect after 48 hours. […] This indicates some heterogeneity in glycosylation.
As shown in Examples 2 and 3, polypeptide GalNAc-transferases contain lectin domains with binding properties for GalNAc-peptides including GalNAc-MUC1 peptides. […] GalNAcβ-benzyl, the β-anomeric configuration of GalNAc-benzyl (there is a β linkage between the N-acetylgalactosamine and the benzyl ring), was custom synthesized by Alberta Research Council (Canada), and its structure was confirmed by mass spectrometry and ^1H-NMR. […] Cells were then treated with 2 mM GalNAcα-benzyl, GalNAcβ-benzyl, or GlcNAcα-benzyl as control (GlcNAcα-benzyl was shown in Example 4 to have no effect). Cells were washed and lysed as described above after 36 hours and the lysates subjected to immunoprecipitation with anti-MUC1 monoclonal antibodies HMFG2 or 5E5. […] FIG. 15 illustrates the same experiment as in FIG. 14 except that the detection antibody is 5E5 and only Tn and STn MUC1 glycoforms are visualised.

[2] = tested on: MUC5AC in HT-29 MTX cells; experiment: MUC5AC secretion, SDS-PAGE western blot of media with LUM5-1 (FIG. 17); assay type: cell-based, human; conditions: 5 mM, continuous culture, media at 14 days
Method: FIG. 17 illustrates SDS-PAGE Western analysis of MUC5AC secretion from HT29MTX cells using polyclonal anti-MUC5AC antibody LUM5-1. In order to evaluate GalNAcβ-benzyl as an inhibitor of mucin glycosylation and secretion we used the HT-29 metotrexate (MTX) cultured colon carcinoma cells of mucin secreting phenotype. HT-29 MTX cells have a goblet cell like phenotype with constitutive production of MUC5AC. Cells were continuously grown up to 21 days in the presence of 5 mM GalNAcα-benzyl, 5 mM GalNAcβ-benzyl, 5 mM GlcNAcα-benzyl and without inhibitor. […] In striking contrast, MUC5AC was not detected in the media from cells treated with GalNAcα-benzyl (Lane 3) or GalNAcβ-benzyl (Lane 4). Results shown are from media collected at 14 days.
In order to evaluate GalNAcβ-benzyl as an inhibitor of mucin glycosylation and secretion we used the cultured colon carcinoma cells of mucin secreting phenotypes: HT-29 metotrexate (MTX) cells selected from the HT-29 cell line by culture in the presence of MTX (kind gift from G. Huet, France). The HT-29 MTX cells were selected to yield a goblet cell like phenotype with constitutive production of MUC5AC. In order to ensure proper goblet cell differentiation the HT29MTX cell line were continuously grown up to 21 days in the presence of 5 mM GalNAcα-benzyl, 5 mM GalNAcβ-benzyl, 5 mM GlcNAcα-benzyl and without inhibitor using culture conditions as described in Hennebicq-Reig et al. (Permanent exposure of mucin-secreting HT-29 cells to benzyl-N-acetyl-alpha-D-galactosaminide induces abnormal O-glycosylation of mucins and inhibits constitutive and stimulated MUC5AC secretion. Biochem J. 1998; 334:283-95). […] Furthermore the viscosity of the media from cells with and without inhibitor was evaluated using viscosity micro-measurement.

GalNAc-T2 lectin domain = target: T1, GalNAc-T2 lectin domain (Homo sapiens, UniProt Q10471); experiment: Inhibition of GalNAc-T2 lectin domain (T2ld) binding to GalNAc-MUC1 glycopeptide, ELISA
T1 construct: comprises amino acid residues 408-571 of GALNT2; made in house; host or cells: baculovirus (pAcGP67-A), virus made in Sf9, protein produced in High Five insect cells
T1 sequence (Q10471 408-571): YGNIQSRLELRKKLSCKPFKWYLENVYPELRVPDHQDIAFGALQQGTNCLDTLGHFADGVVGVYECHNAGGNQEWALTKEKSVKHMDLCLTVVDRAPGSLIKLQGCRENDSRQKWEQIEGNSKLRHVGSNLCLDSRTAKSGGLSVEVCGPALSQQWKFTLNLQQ
Method: (§1) Direct binding ELISA assay was developed as follows: Polystyrene microtiter plates (Maxisorb, Nunc, Denmark) were coated with peptides or enzymatically glycosylated glycopeptides in PBS overnight at 4° C. Plates were washed and blocked with 0.1% Tween20 and 0.2% BSA in PBS for 1 h at room temperature, followed by incubation with biotinylated proteins in PBS with 0.05% Tween20 for 2 h at room temperature. After four washes with PBS, plates were incubated with 1:2,000 dilution streptavidin-HRP (Sigma) in PBS for 30 min at room temperature and washed four times with PBS. Development was performed with 0.5 mg/ml o-phenylenediamine and 0.02% H2O2 at room temperature for 15 min, and reaction stopped by adding 100 μl/well of 0.5 N H2SO4. Competitive inhibition assays were done at end-point titers of GalNAc-transferase proteins with one hour preincubations with inhibitor.
(§2) In binding studies using lectins without biotinylation antibodies to the HIS-tag and the T7-tag, or in some experiments antibodies raised to GalNAc-T2 and -T4 enzymes were used to detect binding.
(§3) Inhibition experiments were used to further define the binding specificity of GalNAc-T2 and -T4 secreted soluble enzymes as well as lectin domains compared to Helix Pomatia lectin (Table IV).

[3] = target: T2, secreted soluble GalNAc-T2 (Homo sapiens, UniProt Q10471); experiment: Inhibition of secreted soluble GalNAc-T2 (sT2) binding to GalNAc-MUC1 glycopeptide, ELISA
T2 construct: 6xHis (N); thrombin cleavage site (N); T7 antibody site (N); made in house; host or cells: baculovirus (pAcGP67A), High Five insect cells
T2 sequence (Q10471 52-571 limits assumed): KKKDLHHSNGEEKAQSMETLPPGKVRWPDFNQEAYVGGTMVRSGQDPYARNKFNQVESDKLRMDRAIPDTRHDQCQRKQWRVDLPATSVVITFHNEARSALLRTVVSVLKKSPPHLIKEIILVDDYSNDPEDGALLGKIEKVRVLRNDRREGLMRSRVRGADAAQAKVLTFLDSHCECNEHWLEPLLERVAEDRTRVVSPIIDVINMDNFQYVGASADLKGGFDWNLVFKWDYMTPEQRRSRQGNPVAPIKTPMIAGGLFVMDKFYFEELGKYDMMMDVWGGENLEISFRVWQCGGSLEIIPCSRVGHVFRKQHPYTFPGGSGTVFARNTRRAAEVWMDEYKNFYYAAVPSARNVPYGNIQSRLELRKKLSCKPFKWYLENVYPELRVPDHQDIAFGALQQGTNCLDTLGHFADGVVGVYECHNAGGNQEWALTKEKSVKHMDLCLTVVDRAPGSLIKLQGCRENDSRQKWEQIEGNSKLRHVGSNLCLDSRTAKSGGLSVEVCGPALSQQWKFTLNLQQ
Method: as §1, §3

GalNAc-T4 lectin domain = target: T3, GalNAc-T4 lectin domain (Homo sapiens, UniProt Q8N4A0); experiment: Inhibition of GalNAc-T4 lectin domain (T4ld) binding to GalNAc-MUC1 glycopeptide, ELISA
T3 construct: comprises amino acid residues 405-578 of GALNT4; made in house; host or cells: baculovirus (pAcGP67-A), virus made in Sf9, protein produced in High Five insect cells
T3 sequence (Q8N4A0 405-578): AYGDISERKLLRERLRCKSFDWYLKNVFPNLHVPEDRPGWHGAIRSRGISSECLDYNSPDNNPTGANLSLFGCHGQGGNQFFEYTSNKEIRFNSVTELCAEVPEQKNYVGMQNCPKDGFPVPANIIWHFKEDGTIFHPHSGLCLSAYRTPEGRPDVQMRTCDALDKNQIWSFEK
Method: as §1, §2, §3

[4] = target: T4, secreted soluble GalNAc-T4 (Homo sapiens, UniProt Q8N4A0); experiment: Inhibition of secreted soluble GalNAc-T4 (sT4) binding to GalNAc-MUC1 glycopeptide, ELISA
T4 construct: 6xHis (N); thrombin cleavage site (N); T7 antibody site (N); made in house; host or cells: baculovirus (pAcGP67A), High Five insect cells
T4 sequence (Q8N4A0 36-578 limits assumed): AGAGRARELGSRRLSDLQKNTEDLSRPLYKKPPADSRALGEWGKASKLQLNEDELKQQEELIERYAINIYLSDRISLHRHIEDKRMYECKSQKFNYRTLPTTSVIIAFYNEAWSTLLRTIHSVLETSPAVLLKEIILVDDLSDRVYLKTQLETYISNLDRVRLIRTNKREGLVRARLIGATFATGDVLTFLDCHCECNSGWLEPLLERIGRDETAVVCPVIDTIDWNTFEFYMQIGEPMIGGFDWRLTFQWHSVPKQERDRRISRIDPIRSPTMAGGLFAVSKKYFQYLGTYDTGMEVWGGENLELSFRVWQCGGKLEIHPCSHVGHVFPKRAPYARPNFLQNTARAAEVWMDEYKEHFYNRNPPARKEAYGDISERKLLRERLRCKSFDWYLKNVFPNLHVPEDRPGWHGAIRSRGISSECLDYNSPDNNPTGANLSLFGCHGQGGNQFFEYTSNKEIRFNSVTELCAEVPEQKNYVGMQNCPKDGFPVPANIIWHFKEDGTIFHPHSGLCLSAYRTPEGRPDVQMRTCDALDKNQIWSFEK
Method: as §1, §3

[5] = tested on: GalNAc-T2 and -T4 secreted soluble enzymes as well as lectin domains; experiment: Inhibition of GalNAc-transferase lectin binding to GalNAc-glycopeptides, statements on GalNAc-T2 and -T4 together; set-up: species or system human; conditions: enzymes and isolated lectins
Method: as §1
Lectins and antibodies to carbohydrates usually recognize the anomeric configuration of the sugar structures they bind.
as §3

GalNAc-T4 = GalNAc-T4 (Homo sapiens, UniProt Q8N4A0); conditions: 230 mM; cited from earlier work
Sequence of GalNAc-T4 (Q8N4A0 whole entry, the tested form may be a part): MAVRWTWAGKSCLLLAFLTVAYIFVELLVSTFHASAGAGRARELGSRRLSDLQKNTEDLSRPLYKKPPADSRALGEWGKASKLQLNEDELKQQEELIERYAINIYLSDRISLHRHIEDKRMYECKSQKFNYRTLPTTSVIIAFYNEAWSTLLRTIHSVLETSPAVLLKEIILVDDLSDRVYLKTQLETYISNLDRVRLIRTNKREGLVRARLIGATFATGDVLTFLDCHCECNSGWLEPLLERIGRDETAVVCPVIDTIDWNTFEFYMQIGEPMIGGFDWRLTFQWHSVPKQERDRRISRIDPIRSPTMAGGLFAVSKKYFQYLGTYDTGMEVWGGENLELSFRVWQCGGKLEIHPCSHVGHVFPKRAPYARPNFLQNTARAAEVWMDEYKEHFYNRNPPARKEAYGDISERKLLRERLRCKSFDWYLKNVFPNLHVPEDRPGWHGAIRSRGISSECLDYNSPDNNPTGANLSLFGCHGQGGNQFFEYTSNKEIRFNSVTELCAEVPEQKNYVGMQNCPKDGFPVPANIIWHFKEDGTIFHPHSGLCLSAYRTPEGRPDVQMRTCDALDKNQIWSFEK

[6] = target: T5, human GalNAc-T2 (UDP-GalNAc:polypeptide N-acetylgalactosaminyltransferase T2) isolated truncated lectin domain (T2ld), HIS-tagged, amino acid residues 408-571 o (Homo sapiens, UniProt Q10471); assay type: binding
T5 sequence (Q10471 408-571): T1 sequence (Q10471 408-571)
From the text: (§4) In order to minimize the size and functional complexity of GalNAc-transferase lectins to be used as probes for binding studies, we used multiple sequence alignment analysis to predict and design suitable expression constructs for isolated lectin domains (FIG. 2). In the present invention a direct binding assay was developed using isolated lectin domains of GalNAc-T4 and -T2 with minimal size (FIG. 5). […] The lectin Helix Pomatia (HP) was used as a control plant lectin with known binding specificity for […].
as §1, §2, §3
(§5) The ligand target used in this Example is a GalNAc-MUC1 glycopeptide produced enzymatically from synthetic peptides.

[7] = target: human GalNAc-T4 (UDP-GalNAc:polypeptide N-acetylgalactosaminyltransferase T4) isolated truncated lectin domain (T4ld), HIS-tagged, amino acid residues 405-578 o (Homo sapiens, UniProt Q8N4A0); experiment: biochemical; assay type: binding; conditions: isolated lectin domain
Sequence of human GalNAc-T4 (UDP-GalNAc:polypeptide N-acetylgalactosaminyltransferase T4) isolated truncated lectin domain (T4ld), HIS-tagged, amino acid residues 405-578 o (Q8N4A0 405-578): as the sequence (Q8N4A0 405-578) above
From the text: as §4, §1, §2, §3, §5

GalNAc-MUC1 glycopeptide = experiment: Direct binding assay (ELISA) of biotinylated GalNAc-transferases to GalNAc-MUC1 glycopeptide (FIG. 4); set-up: species or system human; conditions: coated at 1 μg/ml, biotinylated enzymes
Method: (§6) FIG. 4 is a plot of absorbance v. ligand dilution showing GalNAc-transferase binding to GalNAc-MUC1 glycopeptide. A direct binding assay (ELISA) mediated by the lectin domain was developed and validated with soluble secreted GalNAc-T4 and -T2 enzyme proteins. ELISA plates were coated with peptides or glycopeptides at 1 μg/ml, blocked with BSA, and incubated with biotinylated enzymes. After washing, bound enzyme proteins were detected with HRP-Streptavidin as described in detail in Example 2. Secreted soluble constructs of GalNAc-transferases which are enzymatically active may bind to (glyco)peptide substrates through their catalytic units as originally described for GalNAc-T2^32.
(§7) Direct binding ELISA assay was developed as follows: Polystyrene microtiter plates (Maxisorb, Nunc, Denmark) were coated with peptides or enzymatically glycosylated glycopeptides in PBS overnight at 4° C. Plates were washed and blocked with 0.1% Tween20 and 0.2% BSA in PBS for 1 h at room temperature, followed by incubation with biotinylated proteins in PBS with 0.05% Tween20 for 2 h at room temperature. After four washes with PBS, plates were incubated with 1:2,000 dilution streptavidin-HRP (Sigma) in PBS for 30 min at room temperature and washed four times with PBS. […]

[8] = tested on: unglycosylated MUC1 peptide; experiment: Direct binding assay (ELISA) of biotinylated GalNAc-transferases to unglycosylated MUC1 peptide (FIG. 4); set-up: species or system human; conditions: coated at 1 μg/ml, biotinylated enzymes
Method: as §6, §7

## CC(=O)N[C@H]1[C@@H](OCc2ccccc2)O[C@H](CO)[C@@H](O)[C@@H]1O [BzlαGlcNAc]
[1]; HMFG2 blot, cells grown in GalNAc or Gal and GalNAc, listed as GlcNAcα-benzyl
  MUC1 expression: same glycoforms at similar intensity; also recorded: no effect
[1]; cells grown in Gal and GalNAc
  SDS-PAGE migration of MUC1 (O-glycosylation): no effect
[2]
  MUC5AC in media (secretion): detected

## CC(=O)N[C@H]1C(O)O[C@H](CO)[C@H](O)[C@@H]1O (stereo partly shown) [GalNAc, N-acetylgalactosamine]
GalNAc-T2 lectin domain
  IC50: 37 mM
[3]
  IC50: 15 mM
GalNAc-T4 lectin domain
  IC50: 5 mM
[4]
  IC50: 1 mM
[5]
  inhibition of GalNAc-T2 and -T4 lectin mediated binding, in words: selectively inhibited
GalNAc-T4
  inhibition of GalNAc-glycopeptide activity of GalNAc-T4: selective inhibition

## OC[C@H]1OC(O)[C@H](O)[C@@H](O)[C@H]1O (stereo partly shown) [Gal]
[6]
  inhibition of GalNAc-T2 lectin domain binding (in words): no inhibitory effect
[7]
  inhibition of GalNAc-T4 lectin domain binding (in words): no inhibitory effect

## OC[C@H]1O[C@@H](O[C@H]2[C@H](O)[C@@H](O)C(O)O[C@@H]2CO)[C@H](O)[C@@H](O)[C@H]1O (stereo partly shown) [Lactose]
GalNAc-T2 lectin domain
  IC50: > 100 mM
[3]
  IC50: > 100 mM
GalNAc-T4 lectin domain
  IC50: > 100 mM
[4]
  IC50: > 100 mM

## CC(=O)N[C@H]1[C@@H](Oc2ccccc2[N+](=O)[O-])O[C@H](CO)[C@H](O)[C@@H]1O [oNPαGalNAc]
[3]
  IC50: 7 mM
GalNAc-T4 lectin domain
  IC50: 5 mM
[4]
  IC50: 0.5 mM

## CC(=O)N[C@H]1[C@@H](Oc2ccc([N+](=O)[O-])cc2)O[C@H](CO)[C@H](O)[C@@H]1O [pNPαGalNAc]
GalNAc-T2 lectin domain
  IC50: > 10 mM
[3]
  IC50: > 10 mM
[4]
  IC50: 1 mM

## GalNAc-T2: soluble secreted human GalNAc-T2 enzyme protein, biotinylated
GalNAc-MUC1 glycopeptide
  binding to GalNAc-MUC1 glycopeptide: selectively bind
[8]
  binding to unglycosylated MUC1 peptide: no significant binding

## GalNAc-T4 wild type: soluble secreted human GalNAc-T4 enzyme protein, biotinylated
GalNAc-MUC1 glycopeptide
  binding to GalNAc-MUC1 glycopeptide: selectively bind
[8]
  binding to unglycosylated MUC1 peptide: no significant binding
